The source of these data is US20200392158A1, “INHIBITORS OF LEUCINE RICH REPEAT KINASE 2” (GLAXOSMITHKLINE INTELLECTUAL PROPERTY DEVELOPMENT LIMITED, priority 2017, published 2020).

Each structure is given as a SMILES string. Bounds are passed on as bounds.

In this assay the target is T1, full length G2019 human LRRK2 (Homo sapiens, UniProt Q5S007, R50H).
T1 construct: made in house; host or cells: HEK293 6E cells transduced with BacMam virus (virus generated in Sf9 cells)
As to the kind of experiment: Full length G2019 human LRRK2 inhibition mass spectrometry assay. The format is biochemical. The following applies: LRRKtide to phospho-LRRKtide conversion, RapidFire MS, 2 mM ATP. As for the experimental part: a. Full Length G2019 Human LRRK2 Inhibition Mass Spectrometry Assay
This assay for Leucine Rich Repeat Kinase 2 (LRRK2) inhibition is based on the direct measurement of the peptide ‘LRRKtide’ (LRRKtide: RLGRDKYKT*LRQIRQ and “*” refers to the site of phosphorylation.) and phosphorylated ‘LRRKtide’ using a high throughput Rapid Fire mass spectrometry assay. Inhibitors are compounds that reduce the conversion of LRRKtide to phospho-LRRKtide.
• 1) Compounds were dissolved in 100% DMSO at a concentration of 10 mM, and 11-point dose response curves generated using a 1 in 4 serial dilution in DMSO. 100 nL of this dilution series was then added to a 384 well, v bottom polypropylene plate (Greiner 781280), excluding columns 6 and 18. 100 nL of DMSO were added to column 6 to serve as the high control, while column 18 served as the low control containing assay buffer in place of the LRRK2 protein. Assay dilution gave a top final assay concentration of test compound of […] • 2) 5 μL of ‘enzyme solution’ containing 2× final assay concentration of purified recombinant Full length Flag-LRRK2 in assay buffer (50 mM Hepes, pH 7.2, 10 mM MgCl2, 150 mM NaCl, 5% glycerol, 0.0025% Triton X-100 and 1 mM DTT) were added to all wells using a Multidrop Combi dispenser (ThermoFisher Scientifiec), giving a final assay concentration of 25 nM LRRK2 enzyme (final concentration may vary depending on specific activity of different enzyme batches). • 3) 5 μL of substrate solution containing 50 μM LRRKtide peptide substrate and […] was added to all wells of the plate using a Multidrop Combi dispenser giving a final assay concentration of 25 μM LRRKtide peptide and 2 mM ATP. Test plates were then incubated for 1 hour at room temperature. (Incubation may vary depending on rate and linearity of reaction with different enzyme batches). • 4) 50 μl of 1% formic acid in laboratory grade water was added to all wells to quench the reaction, and plates were heat-sealed prior to centrifugation at 1348×g for 10 minutes. Test plates were then analysed on an Agilent RapidFire High Throughput solid phase extraction system coupled to AB Sciex API 4000 triple quadropole mass spectrometer with the following setting:
• Sip Height=2 mm, Aspirate=500 ms, Load time=3000 ms, Elution time=3000 ms, Requilibration=500 ms. • Flow rates: pump 1=1.5 mL/min, pump 2 1.25 mL/min pump 3=0.8 mL/min
Mass Spectrometer Settings: • LRRKtide Detection settings: Q1 mass 644.8 Da, Q3 mass 638.8, declustering potential 76 volts, collision energy 37 volts, CXP 34 volts. • Phospho-LRRKtide Detection settings: Q1 mass 671.4 Da, Q3 mass 638.8, Declustering potential 76 volts, Collision energy 37 volts, CXP 34 volts. • A C4 cartridge was used and running buffers were: A (aqueous) 0.1% formic acid in water B (organic) 0.1% formic acid, 80% acetonitrile, 20% water. • Collision gas: 12, Curtain gas: 25, Ion Source gas (1): 60, Ion Source gas (2): 60, Ion Spray Voltage: 5500, Temperature: 600, Interface Heater: ON. • Resolution Q1: low, Resolution Q3: low. • 5) Data were analysed using ActivityBase software (IDBS). A percent conversion from LRRKtide to Phospho-LRRKtide was calculated using the following formula:
% conversion=(Phospho-LRRKtide product peak area/(Phospho-LRRKtide product peak area+LRRKtide substrate peak area))*100 • A logistic 4 parameter curve fit was applied, using the following formula,
[formula] • Where x is the concentration of test sample, y is inhibition (%), a is the minimum, b is the Hill slope, c is the IC50 and d is the maximum. From this, the pIC50 was derived (−log IC50).

T1 sequence (Q5S007 with tags, fused parts or gaps R50H): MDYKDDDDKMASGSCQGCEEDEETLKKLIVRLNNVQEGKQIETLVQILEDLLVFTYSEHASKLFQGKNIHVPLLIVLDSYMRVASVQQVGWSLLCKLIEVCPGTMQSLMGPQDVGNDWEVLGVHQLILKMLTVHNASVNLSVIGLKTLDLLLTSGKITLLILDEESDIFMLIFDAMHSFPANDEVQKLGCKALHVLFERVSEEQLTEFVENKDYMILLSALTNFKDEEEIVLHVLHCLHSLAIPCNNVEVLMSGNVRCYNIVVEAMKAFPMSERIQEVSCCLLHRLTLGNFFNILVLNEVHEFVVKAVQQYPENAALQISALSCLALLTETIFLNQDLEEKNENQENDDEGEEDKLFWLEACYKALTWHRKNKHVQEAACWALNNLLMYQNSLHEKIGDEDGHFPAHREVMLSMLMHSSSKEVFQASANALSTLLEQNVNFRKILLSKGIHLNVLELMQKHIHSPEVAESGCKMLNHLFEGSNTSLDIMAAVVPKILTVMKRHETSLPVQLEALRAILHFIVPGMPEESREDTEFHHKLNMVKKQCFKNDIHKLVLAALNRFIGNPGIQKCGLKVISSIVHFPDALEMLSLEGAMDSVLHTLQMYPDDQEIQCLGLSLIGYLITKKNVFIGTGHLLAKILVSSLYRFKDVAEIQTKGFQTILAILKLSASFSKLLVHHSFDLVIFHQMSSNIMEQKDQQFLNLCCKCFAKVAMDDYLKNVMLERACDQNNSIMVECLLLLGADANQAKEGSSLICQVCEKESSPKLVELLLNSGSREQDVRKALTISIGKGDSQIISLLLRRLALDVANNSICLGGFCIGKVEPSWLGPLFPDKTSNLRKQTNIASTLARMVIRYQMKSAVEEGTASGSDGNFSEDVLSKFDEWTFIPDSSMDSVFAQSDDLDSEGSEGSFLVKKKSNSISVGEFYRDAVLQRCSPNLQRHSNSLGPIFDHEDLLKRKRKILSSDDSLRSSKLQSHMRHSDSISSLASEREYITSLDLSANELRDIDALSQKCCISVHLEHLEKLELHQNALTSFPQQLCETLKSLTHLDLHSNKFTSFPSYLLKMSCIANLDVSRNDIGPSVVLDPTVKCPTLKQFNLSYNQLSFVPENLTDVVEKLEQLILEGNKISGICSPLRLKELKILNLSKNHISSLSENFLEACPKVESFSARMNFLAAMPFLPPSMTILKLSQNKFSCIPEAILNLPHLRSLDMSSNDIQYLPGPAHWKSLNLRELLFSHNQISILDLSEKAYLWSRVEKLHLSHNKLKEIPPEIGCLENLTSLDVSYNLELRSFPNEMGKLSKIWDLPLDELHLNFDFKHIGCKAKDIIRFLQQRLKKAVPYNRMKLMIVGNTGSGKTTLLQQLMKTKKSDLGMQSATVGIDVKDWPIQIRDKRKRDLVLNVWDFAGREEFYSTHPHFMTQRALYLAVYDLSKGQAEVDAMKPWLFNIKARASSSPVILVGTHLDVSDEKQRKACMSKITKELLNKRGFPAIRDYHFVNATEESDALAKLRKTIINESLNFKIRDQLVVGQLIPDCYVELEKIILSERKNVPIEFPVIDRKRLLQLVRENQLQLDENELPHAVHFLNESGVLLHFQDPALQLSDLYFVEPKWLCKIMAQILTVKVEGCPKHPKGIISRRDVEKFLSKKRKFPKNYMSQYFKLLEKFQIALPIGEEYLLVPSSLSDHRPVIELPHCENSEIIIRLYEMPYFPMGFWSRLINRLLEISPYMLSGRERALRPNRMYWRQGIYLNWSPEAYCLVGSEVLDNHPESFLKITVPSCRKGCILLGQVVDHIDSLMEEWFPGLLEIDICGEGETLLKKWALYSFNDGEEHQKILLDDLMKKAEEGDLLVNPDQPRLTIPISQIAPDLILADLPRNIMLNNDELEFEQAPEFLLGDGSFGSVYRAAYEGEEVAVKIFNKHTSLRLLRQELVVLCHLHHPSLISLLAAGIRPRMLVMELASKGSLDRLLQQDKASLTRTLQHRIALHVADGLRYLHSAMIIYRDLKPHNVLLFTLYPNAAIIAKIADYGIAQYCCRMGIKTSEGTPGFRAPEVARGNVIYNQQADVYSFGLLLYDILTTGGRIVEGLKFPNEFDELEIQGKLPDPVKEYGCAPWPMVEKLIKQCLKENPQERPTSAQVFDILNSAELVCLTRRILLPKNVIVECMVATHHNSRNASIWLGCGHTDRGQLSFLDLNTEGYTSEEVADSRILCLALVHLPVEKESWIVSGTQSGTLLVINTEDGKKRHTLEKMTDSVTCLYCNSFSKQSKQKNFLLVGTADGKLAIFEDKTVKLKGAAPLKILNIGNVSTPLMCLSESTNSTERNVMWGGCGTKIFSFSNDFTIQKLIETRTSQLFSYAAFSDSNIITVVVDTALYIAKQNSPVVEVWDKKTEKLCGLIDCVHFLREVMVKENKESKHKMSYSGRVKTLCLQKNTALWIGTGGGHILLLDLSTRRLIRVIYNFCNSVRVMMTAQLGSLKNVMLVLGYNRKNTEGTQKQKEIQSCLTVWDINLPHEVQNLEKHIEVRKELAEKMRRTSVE

`Cc1c2c(nn1C1CCOC1)OCCCNc1nc(ncc1Cl)N2` (single isomer, unassigned) [E124, 14-chloro-4-methyl-5-(oxolan-3-yl)-8-oxa-2,5,6,12,16,17-hexaazatricyclo[11.3.1.0^3,7]heptadeca-1(16),3,6,13(17), 14-pentaene] gave an IC50 of at most 0.1 µM. For the molecule `Cc1c2c(nn1C1CCOCC1)OCC[C@@H](C(C)C)Nc1nc(ncc1Cl)N2` [E298, (11S)-14-Chloro-4-methyl-5-(oxan-4-yl)-11-(propan-2-yl)-8-oxa-2,5,6,12,16,17-hexaazatricyclo[11.3.1.0^3,7]heptadeca-1(16),3,6,13(17),14-pentaene], the IC50 is at most 0.1 µM.

As for `Clc1cnc2nc1NCCCOc1nn(C3CCOC3)c(Cl)c1N2` (single isomer, unassigned) [E146, 4,14-Dichloro-5-(oxolan-3-yl)-8-oxa-2,5,6,12, 16,17-hexaaza tricyclo[11.3.1.0^3,7]heptadeca-1(16),3,6,13(17), 14-pentaene], the IC50 is at most 0.1 µM. For `Cc1c2c(nn1CCN1CCC(F)C1)OCCC(C)Nc1nc(ncc1Cl)N2` (single isomer, unassigned) [E217, 14-Chloro-5-[2-(3-fluoropyrrolidin-1-yl)ethyl]-4,11-dimethyl-8-oxa-2,5,6,12,16,17-hexaazatricyclo [11.3.1.0^3,7] heptadeca-1(16),3,6,13(17),14-pentaene] the value was at most 10 µM; for `Cc1c2c(nn1C1CCOC(C)C1)OCCCNc1nc(ncc1Cl)N2` (single isomer, unassigned) [E203, 14-Chloro-4-methyl-5-(2-methyloxan-4-yl)-8-oxa-2,5,6,12,16,17-hexaazatricyclo[11.3.1.0^3,7]heptadeca-1(16),3,6,13(17),14-pentaene], at most 0.1 µM; for `Cc1c2c(nn1C1(C(F)(F)F)CCOCC1)OCCCNc1nc(ncc1Cl)N2` [E418, 14-Chloro-4-methyl-5-[4-(trifluoromethyl)oxan-4-yl]-8-oxa-2,5,6,12,16,17-hexaazatricyclo[11.3.1.0^3,7]heptadeca-1(16),3,6,13(17),14-pentaene], at most 0.1 µM. For `Cc1c2c(nn1C1CCOCC1C)OCCCNc1nc(ncc1Cl)N2` (single isomer, unassigned) [E140, 14-chloro-4-methyl-5-(3-methyloxan-4-yl)-8-oxa-2,5,6,12,16,17-hexaazatricyclo[11.3.1.0^3,7]heptadeca-1(16),3,6,13(17),14-pentaene] the value was at most 0.1 µM; for `Clc1cnc2nc1NCCCOc1nn(C3CCCOC3)cc1N2` (stereo not shown) [E9, 14-Chloro-5-(oxan-3-yl)-8-oxa-2,5,6,12,16,17-hexaazatricyclo[11.3.1.0^3,7]heptadeca-1(16),3,6,13(17),14-pentaene], at most 10 µM. For `COc1cnc2nc1N[C@H](C)CCOc1nn(C3CCOCC3)c(C)c1N2` [E294, (11R)-14-Methoxy-4,11-dimethyl-5-(oxan-4-yl)-8-oxa-2,5,6,12,16, 17-hexaazatricyclo[11.3.1.0^3,7]heptadeca-1(16),3,6,13(17),14-pentaene] the value was at most 10 µM. Molecule `C[C@@H]1CCOc2nn(C3CCN(C4COC4)CC3(F)F)c(Cl)c2Nc2ncc(Cl)c(n2)N1` (single isomer, unassigned) [E445] gave an IC50 of at most 0.1 µM.

Take `Cc1c2c(nn1C1CCOCC1F)OCCC(C)Nc1nc(ncc1Cl)N2` (single isomer, unassigned) [E28, 14-chloro-5-(3-fluorooxan-4-yl)-4,11-dimethyl-8-oxa-2,5,6,12,16,17-hexaazatricyclo [11.3.1.0^3,7]heptadeca-1(17),3,6,13,15-pentaene]: the IC50 was at most 0.1 µM. Take `Cc1c2c(nn1C1CCC(C)CC1)OCCC(C)Nc1nc(ncc1Cl)N2` (single isomer, unassigned) [E262, 14-Chloro-4,11-dimethyl-5-(4-methylcyclohexyl)-8-oxa-2,5,6,12,16,17-hexaazatricyclo[11.3.1.0^3,7] heptadeca-1(16),3,6,13(17),14-pentaene]: the IC50 is at most 10 µM. Molecule `Cc1c2c(nn1C(C)(C)C#N)OCC[C@@H](C(C)C)Nc1nc(ncc1Cl)N2` [E323, 2-[(11S)-14-Chloro-4-methyl-11-(propan-2-yl)-8-oxa-2,5,6,12, 16,17-hexaazatricyclo[11.3.1.0^3,7]heptadeca-1(16),3,6,13(17),14-pentaen-5-yl]-2-methylpropanenitrile] had an IC50 of at most 10 µM. For `Cc1c2c(nn1C(C)C1CCOCC1)OCCC(C)Nc1nc(ncc1Cl)N2` (single isomer, unassigned) [E185, 14-Chloro-4,11-dimethyl-5-[1-(oxan-4-yl)ethyl]-8-oxa-2,5,6,12,16,17-hexaazatricyclo[11.3.1.0^3,7]heptadeca-1(16),3,6,13(17),14-pentaene] the value was at most 10 µM; for `Cc1c2c(nn1C1CCOCC1)OCC(C)C(C)Nc1nc(ncc1Cl)N2` (single isomer, unassigned) [E34, 14-chloro-4,10,11-trimethyl-5-(oxan-4-yl)-8-oxa-2,5,6,12,16,17-hexaazatricyclo [11.3.1.0^3,7]heptadeca-1(16),3,6,13(17),14-pentaene], at most 10 µM. The same measure for `Cc1c2c(nn1C1CCOCC1)OCCC(CF)Nc1nc(ncc1Cl)N2` (single isomer, unassigned) [E53, 14-chloro-11-(fluoromethyl)-4-methyl-5-(oxan-4-yl)-8-oxa-2,5,6,12, 16,17-hexaazatricyclo[11.3.1.0^3,7]heptadeca-1(16),3,6,13(17),14-pentaene]: at most 10 µM; for `Cc1c2c(nn1C1CCC(N3CCC(F)C3)CC1)OCCCNc1nc(ncc1Cl)N2` (single isomer, unassigned) [E154, 14-Chloro-5-[4-(3-fluoropyrrolidin-1-yl)cyclohexyl]-4-methyl-8-oxa-2,5,6,12,16,17-hexaazatricyclo[11.3.1. 0^3,7]heptadeca-1(16),3,6,13(17),14-pentaene]: at most 0.1 µM; for `Cc1c2c(nn1C1CN(C3CCOCC3)C1)OC[C@@H](F)[C@@H](C)Nc1nc(ncc1Cl)N2` [E388, (10S, 11R)-14-Chloro-10-fluoro-4,11-dimethyl-5-[1-(oxan-4-yl)azetidin-3-yl]-8-oxa-2,5,6,12,16,17-hexaazatricyclo [11.3.1.0^3,7]heptadeca-1(16),3,6,13(17),14-pentaene]: at most 0.1 µM.

In turn, `Clc1cnc2nc1NCCCOc1nn(C3CCOCC3)c(C3CC3)c1N2` [E147, 14-Chloro-4-cyclopropyl-5-(oxan-4-yl)-8-oxa-2,5,6,12,16,17-hexaazatricyclo[11.3.1.0^3,7]heptadeca-1(16),3,6,13(17),14-pentaene] showed an IC50 of at most 10 µM.

The molecule `COCC1CCOc2nn(C3CCOCC3F)c(C)c2Nc2ncc(Cl)c(n2)N1` (single isomer, unassigned) [E356, 14-Chloro-5-(3-fluorooxan-4-yl)-11-(methoxymethyl)-4-methyl-8-oxa-2,5,6,12,16,17-hexaazatricyclo [11.3. 1.0^3,7]heptadeca-1(16),3,6,13(17),14-pentaene] showed an IC50 of at most 10 µM. The same measure for `Cc1c2c(nn1C1CCC(N3C[C@@H]4C[C@H]3CO4)CC1)OCCCNc1nc(ncc1Cl)N2` (single isomer, unassigned) [E51]: at most 0.1 µM; for `CCOC1CNc2nc(ncc2Cl)Nc2c(nn(C3CCOCC3)c2C)OC1` (single isomer, unassigned) [E286, 14-Chloro-10-ethoxy-4-methyl-5-(oxan-4-yl)-8-oxa-2,5,6,12,16,17-hexaazatricyclo[11.3.1.0^3,7]heptadeca-1(16),3,6,13(17),14-pentaene]: at most 10 µM.

As usually defined, the IC50 is the concentration that inhibits the measured activity by half.
